Test results published in patent US20220000976A1 (priority 2018, published 2022).
Where a name gives a salt, the structure may show the parent alone.

Experiments:
ROR-γt+ Treg cells = conditions: mouse, in vivo
Il4ra^F709 mice = assay: Food allergy model: OVA/SEB oral sensitization and OVA challenge of treated Il4ra^F709 mice (core body temperature); type: in vivo, mouse; conditions: 100 mg/kg i.p. once weekly, OVA/SEB 8 weeks

Row | SMILES | ROR-γt+ staining in CD4+Foxp3+ Treg cells vs sham treatment (ROR-γt+ Treg cells) | Protection against food allergy (Il4ra^F709 mice; OVA challenge) | Core body temperature changes compared to control (Il4ra^F709 mice; after OVA challenge) | GATA3+ Helios+ gut Treg cells (ROR-γt+ Treg cells; ip, 100 mg/kg) | GATA3+ Helios− gut Treg cells (ROR-γt+ Treg cells; ip, 100 mg/kg) | GATA3+ gut Treg cells (ROR-γt+ Treg cells; ip, 100 mg/kg) | Gut ROR-γt+ Treg cells (expansion) (ROR-γt+ Treg cells; ip, 100 mg/kg) | ROR-γt+ Helios+ gut Treg cells (ROR-γt+ Treg cells; ip, 100 mg/kg) | ROR-γt+ Helios− gut Treg cells (ROR-γt+ Treg cells; ip, 100 mg/kg) | ROR-γt+ gut Treg cells (ROR-γt+ Treg cells; ip, 100 mg/kg)
1 | O=Cc1c[nH]c2ccccc12 [CA, indol-3-carboxaldehyde] | statistically significant increase |  |  |  |  |  |  |  |  | 
2 | O=S(=O)(O)Oc1c[nH]c2ccccc12 [I3S, Indoxyl sulfate] |  | protected against food allergy | statistically significant increase | statistically significant decrease | statistically significant decrease | statistically significant decrease | expanded gut ROR-γt^+ Treg cells | statistically significant increase | statistically significant increase | statistically significant increase
